Drawing on ChEMBL document CHEMBL5257025, “Artemisinin-Derived Dimers: Potent Antimalarial and Anticancer Agents” (J Med Chem, 2016), this text covers IC50 and CC50 for 26 compounds.

Molecules are shown by their SMILES.

Data set [1] has as its system Plasmodium falciparum. As to the kind of experiment: Antimalarial activity against Plasmodium falciparum HB3 assessed as inhibition of malarial growth. It is filed as functional, organism-based.
In data set [2] the test system is Plasmodium falciparum. Kind of data set: Antimalarial activity against Plasmodium falciparum K1 assessed as inhibition of malarial growth. Type of data set: functional, organism-based.
For another data set, the system named is HT-29. As to the kind of experiment: cells. Conditions: Homo sapiens, HT-29, 72 h.
The next data set has as its system MCF7. As to the kind of experiment: Antiproliferative activity against human MCF7 cells assessed as reduction in cell viability measured after 48 hrs by SRB assay. Type of data set: functional, cell-based. The note with it: MCF7, 48 h.
Another data set concerns BeWo. Kind of data set: Antiproliferative activity against human BeWo cells assessed as reduction in cell viability after 72 hrs by MTT assay. It is filed as functional, cell-based. A general note: Tetrazolium dyes change colour on reduction, which living cells bring about.
A further data set deals with EL4. Kind of data set: Antiproliferative activity against mouse EL4 cells assessed as cell growth inhibition incubated for 72 hrs by MTT assay. It is filed as functional, cell-based. Conditions: EL4, 72 h.
In a further data set the test system is P388. As to the kind of experiment: Antiproliferative activity against mouse P388 cells assessed as cell growth inhibition incubated for 72 hrs by MTT assay. It is filed as functional, cell-based. Conditions: P388, 72 h.
A short description of data set [3]: Antiproliferative activity against human BC cells assessed as growth inhibition. Type of data set: functional, cell-based.
Data set [4] in a line: Cytotoxicity against African green monkey Vero cells. Type of data set: toxicity, cell-based. Conditions: chlorocebus sabaeus, read-out: TC50 (the source's name).
In the next data set the test system is KB. As to the kind of experiment: Antiproliferative activity against human KB cells assessed as reduction in cell viability incubated for 48 hrs by MTT assay. Type of data set: functional, cell-based.
Data set [5] deals with Plasmodium falciparum. As to the kind of experiment: microbe, parasite or virus in culture. Conditions: K1.
Description: Antiplasmodial activity against Plasmodium falciparum K1 assessed as inhibition of parasitic growth
The subject of another data set is MDA-MB-231. As to the kind of experiment: Antiproliferative activity against human MDA-MB-231 cells assessed as reduction in cell viability measured after 48 hrs by MTT assay. The note with it: MDA-MB-231, 48 h. Type of data set: functional, cell-based.
The next data set concerns A549. Kind of data set: cells. Conditions: Homo sapiens, A549, 48 h.

`C[C@@H]1CC[C@H]2[C@@H](C)C(CCOC(=O)CCCC(=O)OCCC3O[C@H]4O[C@@]5(C)CC[C@H]6[C@H](C)CC[C@@H]([C@H]3C)[C@@]46OO5)O[C@H]3O[C@@]4(C)CC[C@@H]1[C@]32OO4` (stereo partly specified): the IC50 (usually the concentration needed to halve the response being measured) with Plasmodium falciparum [1] was found to be 1.1 nM; in the data set on Plasmodium falciparum [2], 2.4 nM.
Turning to `C[C@H]1[C@@H](CCCCNC(=O)CC[C@H]2O[C@H]3O[C@@]4(C)CC[C@H]5[C@H](C)CC[C@@H]([C@H]2C)[C@@]35OO4)O[C@H]2O[C@@]3(C)CC[C@H]4[C@H](C)CC[C@@H]1[C@@]24OO3`, the IC50 was 30500 nM in the data set with HT-29; greater than 30200 nM in the data set with MCF7; greater than 30200 nM with BeWo; greater than 30200 nM with EL4; greater than 30200 nM with P388.
For the compound `C[C@@H]1CC[C@H]2[C@@H](C)C(CCOCc3cccc(COCCC4O[C@H]5O[C@@]6(C)CC[C@H]7[C@H](C)CC[C@@H]([C@H]4C)[C@@]57OO6)c3)O[C@H]3O[C@@]4(C)CC[C@@H]1[C@]32OO4` (stereo partly specified), the values for the IC50 with Plasmodium falciparum [1] and in the data set on Plasmodium falciparum [2] were 2.1 nM and 2.7 nM, respectively.
Taken in the same sequence, the figures for `C[C@@H]1CC[C@H]2[C@@H](C)C(CCOC(=O)CCC(=O)OCCC3O[C@H]4O[C@@]5(C)CC[C@H]6[C@H](C)CC[C@@H]([C@H]3C)[C@@]46OO5)O[C@H]3O[C@@]4(C)CC[C@@H]1[C@]32OO4` (stereo partly specified) were 1.4 nM and 1.8 nM.
As to `C[C@@H]1CC[C@H]2[C@H](C[C@]3(Cc4cccc(F)c4)O[C@H]4O[C@@]5(C)CC[C@H]6[C@H](C)CC[C@@H]([C@H]3C)[C@@]46OO5)C(=O)O[C@H]3O[C@@]4(C)CC[C@@H]1[C@]32OO4`, the results for the IC50 (in data set [3]; in the data set with KB) were 3500 nM and 4000 nM, respectively. Moreover, in data set [4], the CC50 amounted to 5500 nM.
Take `C[C@@H]1CC[C@H]2[C@@H](C)C(CSCCCSCC3O[C@H]4O[C@@]5(C)CC[C@H]6[C@H](C)CC[C@@H]([C@H]3C)[C@@]46OO5)O[C@H]3O[C@@]4(C)CC[C@@H]1[C@]32OO4` (stereo partly specified): the midpoint of inhibition in the data set with Plasmodium falciparum [5], the IC50, lay at 13 nM.
`C[C@@H]1CC[C@H]2[C@@H](C)C(CSCCSCC3O[C@H]4O[C@@]5(C)CC[C@H]6[C@H](C)CC[C@@H]([C@H]3C)[C@@]46OO5)O[C@H]3O[C@@]4(C)CC[C@@H]1[C@]32OO4` (stereo partly specified) returned an IC50 in the data set on Plasmodium falciparum [5] of 7.4 nM.
Still for that read-out and setting: the figure for `C[C@@H]1CC[C@H]2[C@@H](C)C(CSCCCCCSCC3O[C@@H]4O[C@]5(C)CC[C@@H]6[C@@H](C)CC[C@H]([C@@H]3C)[C@]46OO5)O[C@H]3O[C@@]4(C)CC[C@@H]1[C@]32OO4` (stereo partly specified) is 12 nM.
In the case of `C[C@@H]1CC[C@H]2[C@@H](C)C(CCOC(=O)c3ccccc3C(=O)OCCC3O[C@H]4O[C@@]5(C)CC[C@H]6[C@H](C)CC[C@@H]([C@H]3C)[C@@]46OO5)O[C@H]3O[C@@]4(C)CC[C@@H]1[C@]32OO4` (stereo partly specified), the IC50 with Plasmodium falciparum [1] was found to be 1.6 nM; in the data set on Plasmodium falciparum [2], 2.6 nM.
Take `C[C@H]1[C@@H](CCNC(=O)CC[C@H]2O[C@H]3O[C@@]4(C)CC[C@H]5[C@H](C)CC[C@@H]([C@H]2C)[C@@]35OO4)O[C@H]2O[C@@]3(C)CC[C@H]4[C@H](C)CC[C@@H]1[C@@]24OO3`: the IC50 in the data set with HT-29 was 1100 nM; in the data set with MCF7 it was 8 nM; in the data set with BeWo, 12100 nM; with EL4, 10100 nM; in the data set with P388 it was 16800 nM.
For `C[C@@H]1CC[C@H]2[C@@H](C)C(OCCN/C(=N/c3ccc(Cl)cc3Cl)NCCOC3O[C@@H]4O[C@]5(C)CC[C@@H]6[C@@H](C)CC[C@H]([C@@H]3C)[C@]46OO5)O[C@H]3O[C@@]4(C)CC[C@@H]1[C@]32OO4` (stereo partly specified), the figures for the IC50 in the data set on HT-29, with MDA-MB-231 and with A549 were 50 nM, 2080 nM and 640 nM, respectively.
For the compound `C[C@@H]1CC[C@H]2[C@@H](C)C(CCS(=O)(=O)CCC3O[C@@H]4O[C@]5(C)CC[C@@H]6[C@@H](C)CC[C@H]([C@@H]3C)[C@]46OO5)O[C@H]3O[C@@]4(C)CC[C@@H]1[C@]32OO4` (stereo partly specified), the IC50 in the data set on HT-29 was 580 nM; in the data set on MCF7, 40 nM; in the data set with BeWo, 1590 nM; with EL4 it was 820 nM; in the data set with P388, 8550 nM.
Regarding `C[C@@H]1CC[C@H]2[C@@H](C)C(OCCN/C(=N/c3cccc(Br)c3)NCCOC3O[C@@H]4O[C@]5(C)CC[C@@H]6[C@@H](C)CC[C@H]([C@@H]3C)[C@]46OO5)O[C@H]3O[C@@]4(C)CC[C@@H]1[C@]32OO4` (stereo partly specified), the results for the IC50 in the data set with HT-29, with MDA-MB-231 and with A549 were 400 nM, 1570 nM and 360 nM, respectively.
Taken in the same sequence, the figures for `C[C@@H]1CC[C@H]2[C@@H](C)C(OCCN/C(=N/c3cc(C(F)(F)F)ccc3F)NCCOC3O[C@@H]4O[C@]5(C)CC[C@@H]6[C@@H](C)CC[C@H]([C@@H]3C)[C@]46OO5)O[C@H]3O[C@@]4(C)CC[C@@H]1[C@]32OO4` (stereo partly specified) were 20 nM, 1420 nM and 240 nM.
`C[C@@H]1CC[C@H]2[C@@H](C)C(CCS(=O)(=O)CCCS(=O)(=O)CCC3O[C@@H]4O[C@]5(C)CC[C@@H]6[C@@H](C)CC[C@H]([C@@H]3C)[C@]46OO5)O[C@H]3O[C@@]4(C)CC[C@@H]1[C@]32OO4` (stereo partly specified): the IC50 in the data set with HT-29 was found to be 500 nM; in the data set on MCF7, 7360 nM; in the data set with BeWo, 11200 nM; with EL4, 13100 nM; in the data set with P388, 11000 nM.
In the case of `C[C@@H]1CC[C@H]2[C@@H](C)C(OCCN/C(=N/c3ccc(OC(F)(F)F)cc3)NCCOC3O[C@@H]4O[C@]5(C)CC[C@@H]6[C@@H](C)CC[C@H]([C@@H]3C)[C@]46OO5)O[C@H]3O[C@@]4(C)CC[C@@H]1[C@]32OO4` (stereo partly specified), the IC50 in the data set on HT-29 came to 240 nM; in the data set with A549, 170 nM.
With `C[C@@H]1CC[C@H]2[C@@H](C)C(OCCN/C(=N/c3cccc(Cl)c3)NCCOC3O[C@@H]4O[C@]5(C)CC[C@@H]6[C@@H](C)CC[C@H]([C@@H]3C)[C@]46OO5)O[C@H]3O[C@@]4(C)CC[C@@H]1[C@]32OO4` (stereo partly specified), the IC50 in the data set on HT-29 was 100 nM; in the data set with MDA-MB-231, 1170 nM; with A549, 720 nM.
On to `C[C@@H]1CC[C@H]2[C@@H](C)C(CCNC(=O)CCC(N)C(=O)NCCC3O[C@H]4O[C@@]5(C)CC[C@H]6[C@H](C)CC[C@@H]([C@H]3C)[C@@]46OO5)O[C@H]3O[C@@]4(C)CC[C@@H]1[C@]32OO4` (stereo partly specified), for which the IC50 with HT-29 is 8900 nM; with MCF7, 20900 nM; in the data set with BeWo, greater than 27300 nM; in the data set on EL4, 22500 nM; in the data set with P388, 21300 nM.
Consider `C[C@@H]1CC[C@H]2[C@@H](C)C(CCOCc3ccccc3COCCC3O[C@H]4O[C@@]5(C)CC[C@H]6[C@H](C)CC[C@@H]([C@H]3C)[C@@]46OO5)O[C@H]3O[C@@]4(C)CC[C@@H]1[C@]32OO4` (stereo partly specified), for which the IC50 was 1.3 nM in the data set on Plasmodium falciparum [1] and 2.9 nM in the data set on Plasmodium falciparum [2].
For `C[C@@H]1CC[C@H]2[C@@H](C)C(CCOC(=O)c3ccc(C(=O)OCCC4O[C@H]5O[C@@]6(C)CC[C@H]7[C@H](C)CC[C@@H]([C@H]4C)[C@@]57OO6)cc3)O[C@H]3O[C@@]4(C)CC[C@@H]1[C@]32OO4` (stereo partly specified), in the data set on Plasmodium falciparum [5], the IC50 came to 4.6 nM.
On the same count and under the same terms, the figure for `C[C@@H]1CC[C@H]2[C@@H](C)C(CSCCCCSC3O[C@H]4O[C@@]5(C)CC[C@H]6[C@H](C)CC[C@@H]([C@H]3C)[C@@]46OO5)O[C@H]3O[C@@]4(C)CC[C@@H]1[C@]32OO4` (stereo partly specified) is 5.7 nM; for `C[C@@H]1CC[C@H]2[C@@H](C)C(CCOC(=O)c3cccc(C(=O)OCCC4O[C@H]5O[C@@]6(C)CC[C@H]7[C@H](C)CC[C@@H]([C@H]4C)[C@@]57OO6)c3)O[C@H]3O[C@@]4(C)CC[C@@H]1[C@]32OO4` (stereo partly specified) it is 42.2 nM.
With `C[C@@H]1CC[C@H]2[C@@H](C)C(OCCN/C(=N/c3ccc(C(F)(F)F)cc3)NCCOC3O[C@@H]4O[C@]5(C)CC[C@@H]6[C@@H](C)CC[C@H]([C@@H]3C)[C@]46OO5)O[C@H]3O[C@@]4(C)CC[C@@H]1[C@]32OO4` (stereo partly specified), the half-maximal inhibitory concentration (IC50) with HT-29 was determined as 60 nM; with MDA-MB-231, 1180 nM; with A549, 680 nM.
Regarding `CCCCCC[C@@]1(C[C@@H]2C(=O)O[C@H]3O[C@@]4(C)CC[C@H]5[C@H](C)CC[C@@H]2[C@@]35OO4)O[C@H]2O[C@@]3(C)CC[C@H]4[C@H](C)CC[C@@H]([C@H]1C)[C@@]24OO3`, the CC50 in data set [4] came out at 2500 nM. Besides, the IC50 in the data set with KB was found to be 4000 nM.
`C[C@@H]1CC[C@H]2[C@@H](C)C(OCCN/C(=N/c3ccc(Cl)cc3)NCCOC3O[C@@H]4O[C@]5(C)CC[C@@H]6[C@@H](C)CC[C@H]([C@@H]3C)[C@]46OO5)O[C@H]3O[C@@]4(C)CC[C@@H]1[C@]32OO4` (stereo partly specified): the figures for the IC50 in the data set on HT-29, with MDA-MB-231 and in the data set on A549 were 100 nM, 1260 nM and 980 nM, respectively.
As for `CO[C@@]12[C@H](COC(N)=O)C3=C(C(=O)C(C)=C(N)C3=O)N1C[C@@H]1N[C@@H]12` [MITOMYCIN], the IC50 with HT-29, with MCF7, with BeWo, with EL4 and in the data set with P388 was 60 nM throughout.
